Measurements: patent publication US10766869B2, “Triazoles for the treatment of demyelinating dieases” (Vertex Pharmaceuticals Incorporated, priority 2015, dated 2020)
Read-outs that look alike come from different tables or passages of the source.

Test system: primary rat mixed cortical cells
Experiment: In vitro myelination assay (MBP positive myelin strands, fold myelin pixels above background)
Type: cell-based
Conditions: Rattus norvegicus; for fold induction at 1 µM: 1.0 μM compound; for fold induction at 10 µM: 10.0 μM compound
Method in brief: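 Read-out is total MBP-positive myelin strand pixels per well, detected by custom ridge-tracing software and reported as fold over untreated baseline. Primary P1 rat mixed cortical cells received compound (1.0 or 10.0 μM) for 14 days, with medium half-replaced on days 6 and 10. Standard deviation was taken across all replicates.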

[1] = relative to baseline of no added compound, read-out: Fold myelin pixels above background
[2] = read-out: Fold myelin pixels above background relative to baseline of no added compound

COC1CCCN(c2cc(C)cc(Nc3ncn(-c4cc(F)cc(F)c4)n3)n2)C1 (stereo not drawn) [Compound 764, N-[1-(3,5-difluorophenyl)-1,2,4-triazol-3-yl]-6-(3-methoxy-1-piperidyl)-4-methyl-pyridin-2-amine]
fold induction at 1 µM [1]: 1 to 10
fold induction at 10 µM [1]: 1 to 10

Cc1cc(Nc2ncn(-c3cc(F)cc(F)c3)n2)c(F)c(NC2CCOC2)c1 (stereo not drawn) [Compound 765, N3-[1-(3,5-difluorophenyl)-1,2,4-triazol-3-yl]-2-fluoro-5-methyl-N1-tetrahydrofuran-3-yl-benzene-1,3-diamine]
fold induction at 1 µM [1]: 10 to 100
fold induction at 10 µM [1]: 1 to 10

COCCNc1cc(F)cc(-n2cnc(Nc3cc(C)cc(N4CC(F)C4)c3)n2)c1 [Compound 766, N-[3-(3-fluoroazetidin-1-yl)-5-methyl-phenyl]-1-[3-fluoro-5-(2-methoxyethylamino)phenyl]-1,2,4-triazol-3-amine]
fold induction at 1 µM [1]: 1 to 10
fold induction at 10 µM [1]: ≤ 1

Cc1cc(Nc2ncn(-c3ccc(C)c(Cl)c3)n2)cc(N2CCN(C3COC3)CC2)c1 [Compound 767, 1-(3-chloro-4-methyl-phenyl)-N-[3-methyl-5-[4-(oxetan-3-yl)piperazin-1-yl]phenyl]-1,2,4-triazol-3-amine]
fold induction at 1 µM [1]: 1 to 10
fold induction at 10 µM [1]: 10 to 100

Cc1cc(Nc2ncn(-c3cccc(C(F)F)c3)n2)nc(N2CC(N3CCOCC3)C2)c1 [Compound 768, N-[1-[3-(difluoromethyl)phenyl]-1,2,4-triazol-3-yl]-4-methyl-6-(3-morpholinoazetidin-1-yl)pyridin-2-amine]
fold induction at 1 µM [1]: ≤ 1
fold induction at 10 µM [1]: 1 to 10

Cc1cc(C#CC2CC2)cc(Nc2ncn(-c3cccc(F)c3)n2)c1 [Compound 769, N-[3-(2-cyclopropylethynyl)-5-methyl-phenyl]-1-(3-fluorophenyl)-1,2,4-triazol-3-amine]
fold induction at 1 µM [1]: 1 to 10
fold induction at 10 µM [1]: ≤ 1

Fc1ccc(-n2cnc(Nc3cc(C(F)(F)F)cc(N4CCOCC4)n3)n2)cc1F [Compound 770, N-[1-(3,4-difluorophenyl)-1,2,4-triazol-3-yl]-6-morpholino-4-(trifluoromethyl)pyridin-2-amine]
fold induction at 1 µM [1]: 10 to 100
fold induction at 10 µM [1]: 10 to 100

Cc1cc(Nc2ncn(-c3cc(F)cc(F)c3)n2)cc(N2CCN(C)C(C)(C)C2)c1 [Compound 771, 1-(3,5-difluorophenyl)-N-[3-methyl-5-(3,3,4-trimethylpiperazin-1-yl)phenyl]-1,2,4-triazol-3-amine]
fold induction at 1 µM [1]: 10 to 100
fold induction at 10 µM [1]: ≤ 1

Cc1cc(Nc2ncn(-c3cc(F)cc(F)c3)n2)cc(N2CCC(N3CCN(C)CC3)CC2)c1 [Compound 772, 1-(3,5-difluorophenyl)-N-[3-methyl-5-[4-(4-methylpiperazin-1-yl)-1-piperidyl]phenyl]-1,2,4-triazol-3-amine]
fold induction at 1 µM [1]: 1 to 10
fold induction at 10 µM [1]: ≤ 1

Cc1cc(Nc2ncn(-c3cc(F)cc(F)c3)n2)cc(N2CC(C(=O)N3CCCC3)C2)c1 [Compound 773, [1-[3-[[1-(3,5-difluorophenyl)-1,2,4-triazol-3-yl]amino]-5-methyl-phenyl]azetidin-3-yl]-pyrrolidin-1-yl-methanone]
fold induction at 1 µM [1]: 10 to 100
fold induction at 10 µM [1]: ≤ 1

Cc1cc(Nc2ncn(-c3cc(F)cc(F)c3)n2)nc(C2=CCOCC2)c1 [Compound 774, N-[1-(3,5-difluorophenyl)-1,2,4-triazol-3-yl]-6-(3,6-dihydro-2H-pyran-4-yl)-4-methyl-pyridin-2-amine]
fold induction at 1 µM [1]: 1 to 10
fold induction at 10 µM [1]: 10 to 100

OC1(c2cc(F)cc(Nc3ncn(-c4cc(F)cc(F)c4)n3)c2)COC1 [Compound 775, 3-[3-[[1-(3,5-difluorophenyl)-1,2,4-triazol-3-yl]amino]-5-fluoro-phenyl]oxetan-3-ol]
fold induction at 1 µM [1]: 1 to 10
fold induction at 10 µM [1]: 10 to 100

Cc1cc(Nc2ncn(-c3ccnc(F)c3)n2)cc(N2CCCN(C3COC3)CC2)c1 [Compound 776, 1-(2-fluoro-4-pyridyl)-N-[3-methyl-5-[4-(oxetan-3-yl)-1,4-diazepan-1-yl]phenyl]-1,2,4-triazol-3-amine]
fold induction at 1 µM [1]: 10 to 100
fold induction at 10 µM [1]: ≤ 1

Fc1cc(F)cc(-n2cnc(Nc3cc(C(F)F)cc(N4CCCC5(COC5)C4)n3)n2)c1 [Compound 777, 4-(difluoromethyl)-N-[1-(3,5-difluorophenyl)-1,2,4-triazol-3-yl]-6-(2-oxa-8-azaspiro[3.5]nonan-8-yl)pyridin-2-amine]
fold induction at 1 µM [1]: 1 to 10
fold induction at 10 µM [1]: 10 to 100

Cc1cc(Nc2ncn(-c3ccc(F)c(F)c3)n2)cc(OC2CCOC2)c1 (stereo not drawn) [Compound 778, 1-(3,4-difluorophenyl)-N-(3-methyl-5-tetrahydrofuran-3-yloxy-phenyl)-1,2,4-triazol-3-amine]
fold induction at 1 µM [1]: 10 to 100
fold induction at 10 µM [1]: 1 to 10

Cc1ccc(-n2cnc(Nc3cc(F)cc(N4CCN(C5COC5)CC4)c3)n2)cc1F [Compound 779, 1-(3-fluoro-4-methyl-phenyl)-N-[3-fluoro-5-[4-(oxetan-3-yl)piperazin-1-yl]phenyl]-1,2,4-triazol-3-amine]
fold induction at 1 µM [1]: 1 to 10
fold induction at 10 µM [1]: 1 to 10

Cc1cc(Nc2ncn(-c3ccc(F)c(C)c3)n2)cc(N2CCN(C3COC3)CC2)c1 [Compound 780, 1-(4-fluoro-3-methyl-phenyl)-N-[3-methyl-5-[4-(oxetan-3-yl)piperazin-1-yl]phenyl]-1,2,4-triazol-3-amine]
fold induction at 1 µM [1]: 1 to 10
fold induction at 10 µM [1]: 1 to 10

COc1ccc(-n2cnc(Nc3cc(F)cc(N4CCN(C5COC5)CC4)c3)n2)cc1F [Compound 781, 1-(3-fluoro-4-methoxy-phenyl)-N-[3-fluoro-5-[4-(oxetan-3-yl)piperazin-1-yl]phenyl]-1,2,4-triazol-3-amine]
fold induction at 1 µM [1]: 1 to 10
fold induction at 10 µM [1]: ≤ 1

COc1c(F)cc(-n2cnc(Nc3cc(C)cc(N4CC(N5CCOCC5)C4)c3)n2)cc1F [Compound 782, 1-(3,5-difluoro-4-methoxy-phenyl)-N-[3-methyl-5-(3-morpholinoazetidin-1-yl)phenyl]-1,2,4-triazol-3-amine]
fold induction at 1 µM [1]: 10 to 100
fold induction at 10 µM [1]: 1 to 10

Fc1cc(Nc2ncn(-c3ccnc(F)c3)n2)cc(N2CCN(C3COC3)CC2)c1 [Compound 783, N-[3-fluoro-5-[4-(oxetan-3-yl)piperazin-1-yl]phenyl]-1-(2-fluoro-4-pyridyl)-1,2,4-triazol-3-amine]
fold induction at 1 µM [1]: ≤ 1
fold induction at 10 µM [1]: 1 to 10

Fc1ccc(-n2cnc(Nc3cc(Cl)cc(N4CC(N5CCOCC5)C4)c3)n2)cc1F [Compound 784, N-[3-chloro-5-(3-morpholinoazetidin-1-yl)phenyl]-1-(3,4-difluorophenyl)-1,2,4-triazol-3-amine]
fold induction at 1 µM [1]: 10 to 100
fold induction at 10 µM [1]: 10 to 100

Clc1cc(Nc2ncn(-c3ccccn3)n2)cc(N2CC(N3CCOCC3)C2)c1 [Compound 785, N-[3-chloro-5-(3-morpholinoazetidin-1-yl)phenyl]-1-(2-pyridyl)-1,2,4-triazol-3-amine]
fold induction at 1 µM [1]: 10 to 100
fold induction at 10 µM [1]: 100 to 1000

COCC1CCCN(c2cc(C)cc(Nc3ncn(-c4cc(F)cc(F)c4)n3)n2)C1 (stereo not drawn) [Compound 786, N-[1-(3,5-difluorophenyl)-1,2,4-triazol-3-yl]-6-[3-(methoxymethyl)-1-piperidyl]-4-methyl-pyridin-2-amine]
fold induction at 1 µM [1]: 1 to 10
fold induction at 10 µM [1]: ≤ 1

Cc1cc(Nc2ncn(-c3cc(F)cc(F)c3)n2)cc(N2CC(N3CC4CC3CO4)C2)c1 (stereo not drawn) [Compound 788, 1-(3,5-difluorophenyl)-N-[3-methyl-5-[3-(2-oxa-5-azabicyclo[2.2.1]heptan-5-yl)azetidin-1-yl]phenyl]-1,2,4-triazol-3-amine]
fold induction at 1 µM [2]: 10 to 100
fold induction at 10 µM [2]: 1 to 10

CNC(=O)c1cc(Nc2ncn(-c3ccc(F)c(F)c3)n2)nc(N2CCN(C3COC3)CC2)c1 [Compound 789, 2-[[1-(3,4-difluorophenyl)-1,2,4-triazol-3-yl]amino]-N-methyl-6-[4-(oxetan-3-yl)piperazin-1-yl]pyridine-4-carboxamide]
fold induction at 1 µM [2]: 1 to 10
fold induction at 10 µM [2]: ≤ 1

Cc1cc(Nc2ncn(-c3cc(F)cc(F)c3)n2)c(F)c(N2CC(N3CCOCC3)C2)c1 [Compound 790, 1-(3,5-difluorophenyl)-N-[2-fluoro-5-methyl-3-(3-morpholinoazetidin-1-yl)phenyl]-1,2,4-triazol-3-amine]
fold induction at 1 µM [2]: 10 to 100
fold induction at 10 µM [2]: 10 to 100

Cc1cc(Nc2ncn(-c3cc(F)cc(F)c3)n2)cc(N2CC(NCCO)C2)c1 [Compound 791, 2-[[1-[3-[[1-(3,5-difluorophenyl)-1,2,4-triazol-3-yl]amino]-5-methyl-phenyl]azetidin-3-yl]amino]ethanol]
fold induction at 1 µM [2]: 10 to 100
fold induction at 10 µM [2]: ≤ 1

N#Cc1cc(Nc2ncn(-c3cccc(F)c3)n2)cc(N2CCN(C3COC3)CC2)c1 [Compound 793, 3-[[1-(3-fluorophenyl)-1,2,4-triazol-3-yl]amino]-5-[4-(oxetan-3-yl)piperazin-1-yl]benzonitrile]
fold induction at 1 µM [2]: 1 to 10
fold induction at 10 µM [2]: ≤ 1

Fc1cc(Nc2ncn(-c3cccc(C(F)F)c3)n2)cc(N2CCN(C3COC3)CC2)c1 [Compound 794, 1-[3-(difluoromethyl)phenyl]-N-[3-fluoro-5-[4-(oxetan-3-yl)piperazin-1-yl]phenyl]-1,2,4-triazol-3-amine]
fold induction at 1 µM [2]: 1 to 10
fold induction at 10 µM [2]: ≤ 1

COCC1CCN(c2cc(C(F)F)cc(Nc3ncn(-c4cccc(C(F)(F)F)c4)n3)n2)CC1 [Compound 795, 4-(difluoromethyl)-6-[4-(methoxymethyl)-1-piperidyl]-N-[1-[3-(trifluoromethyl)phenyl]-1,2,4-triazol-3-yl]pyridin-2-amine]
fold induction at 1 µM [2]: 1 to 10
fold induction at 10 µM [2]: 1 to 10
